Test results taken from PMC9405102, “Targeted Modification and Structure-Activity Study of GL-29, an Analogue of the Antimicrobial Peptide Palustrin-2ISb” (Antibiotics, 2022).
Where a SMILES comes first, the peptide text is derived from it.

System: S. aureus (ATCC CRM 6538)
Test: SYTOX Green dye uptake membrane permeability assay
Type: cell-based, Staphylococcus aureus
Settings: 4 μM peptide, 2 h
Experimental: Bacteria were inoculated into TSB medium (Gram-positive bacteria) or LB medium (Gram-negative bacteria) at 37 °C overnight, and then sub-cultured at 37 °C for about 2.5 h. Subsequently, the cell cultures were centrifuged at 1000× g at 4 °C for 10 min to collect bacteria cells at the bottom. After the cells were washed twice with 5% TSB or 5% LB in 0.85% NaCl solution, they were resuspended with 5% TSB or 5% LB in 0.85% NaCl solution to obtain a cell concentration of 1 × 10^8 CFU /mL by measuring the optical density (OD) value at 590 nm (Gram-positive bacteria: 0.68–0.72, Gram-negative bacteria: 0.65–0.7). The cell suspensions were then mixed with peptides at a range of concentrations, according to the MIC of antimicrobial assays, in a black 96 well plate and incubated for 2 h at 37 °C. After the incubation, the cells were stained with SYTOX^TM Green Nucleic Acid Stain (Thermo Fisher Scientific, Waltham, MA, USA) dissolved in 5% TSB in 0.85% NaCl to a final concentration of 5 μM and placed in a shaking incubator for 5 min avoiding from light. Bacterial cells treated with 16 μM melittin were used as positive control. The fluorescence intensity was measured with a Synergy HT plate reader (BioTek, USA) at excitation and emission wavelengths of 485 and 528 nm, respectively.

CC[C@H](C)[C@H](NC(=O)[C@H](CCCCN)NC(=O)[C@@H](NC(=O)[C@H](CO)NC(=O)[C@H](CC(N)=O)NC(=O)[C@H](Cc1c[nH]c2ccccc12)NC(=O)[C@H](CC(C)C)NC(=O)CN)[C@@H](C)CC)C(=O)N[C@@H](C)C(=O)NCC(=O)N[C@@H](CCCCN)C(=O)N[C@@H](CCCCN)C(=O)N[C@@H](CC(C)C)C(=O)N[C@@H](Cc1ccccc1)C(=O)N[C@H](C(=O)N[C@@H](CC(N)=O)C(=O)N[C@H](C(=O)N[C@@H](CC(C)C)C(=O)N[C@@H](CC(=O)O)C(=O)N[C@@H](CCCCN)C(=O)N[C@H](C(=O)N[C@@H](CCCNC(=N)N)C(=O)N[C@H]1CSSC[C@@H](C(=O)O)NC(=O)CNC(=O)CNC(=O)[C@H](C)NC(=O)[C@H](C(C)C)NC(=O)[C@H](CCCCN)NC1=O)[C@@H](C)CC)C(C)C)C(C)C [GL-29] (HELM PEPTIDE1{G.L.W.N.S.I.K.I.A.G.K.K.L.F.V.N.V.L.D.K.I.R.C.K.V.A.G.G.C}$PEPTIDE1,PEPTIDE1,23:R3-29:R3$$$V2.0; N-terminus and C-terminus assumed; bridges inferred)
membrane permeabilisation (SYTOX Green uptake): 100%
